Reference: patent publication US20260042731A1, “(2,4-DICHLOROPHENOXY)ACETIC ACID ANALOGS” (CORTEVA AGRISCIENCE LLC, priority 2022, published 2026)
Where two headings read alike, the source gives them in different places.

Legend:
[1] = system: Amaranthus rudis (AMATA), tall water hemp; assay: Postemergence herbicide evaluation, growth of Amaranthus rudis (AMATA); type: in vivo; settings: Amaranthus tuberculatus, post-emergence, read-out: Ave. AMATA
[2] = system: Chenopodium album (CHEAL), common lambsquarters; assay: Postemergence herbicide evaluation, growth of Chenopodium album (CHEAL); type: in vivo; settings: Chenopodium album, post-emergence, read-out: Ave. CHEAL
[3] = system: glyphosate resistant Conyza canadensis (L.) (ERICA), horseweed; assay: Postemergence herbicide evaluation, growth of Conyza canadensis (ERICA); type: in vivo; settings: Erigeron canadensis, post-emergence, read-out: Ave. ERICA
[4] = system: Ambrosia artemisiifolia (AMBEL), common ragweed; assay: Postemergence herbicide evaluation, growth of Ambrosia artemisiifolia (AMBEL); type: in vivo; settings: Ambrosia artemisiifolia, post-emergence, read-out: AVE. AMBEL
[5] = system: Abutilon theophrasti (ABUTH), velvetleaf; assay: Postemergence herbicide evaluation, growth of Abutilon theophrasti (ABUTH); type: in vivo; settings: Abutilon theophrasti, post-emergence, read-out: AVE. ABUTH
[6] = Volatility of compounds measured by thermogravimetric analysis (TGA); type: physicochemical
[7] = system: weeds (ABUTH, AMATA, AMBEL, CHEAL, ERICA); assay: Postemergence herbicide evaluation, overall average % weed control across ABUTH, AMATA, AMBEL, CHEAL, ERICA; type: in vivo; settings: post-emergence, average over the five weeds, read-out: Overall Ave % Weed Control; for pest or weed control at 280 g/ha: 280 g ae/ha; for pest or weed control at 560 g/ha: 560 g ae/ha

Row | SMILES | pest or weed control at 280 g/ha ([1]; 168 h) | pest or weed control at 560 g/ha ([1]; 168 h) | pest or weed control at 280 g/ha ([1]; 336 h) | pest or weed control at 560 g/ha ([1]; 336 h) | pest or weed control at 280 g/ha ([1]; 504 h) | pest or weed control at 560 g/ha ([1]; 504 h) | pest or weed control at 280 g/ha ([2]; 168 h) | pest or weed control at 560 g/ha ([2]; 168 h) | pest or weed control at 280 g/ha ([2]; 336 h) | pest or weed control at 560 g/ha ([2]; 336 h) | pest or weed control at 280 g/ha ([2]; 504 h) | pest or weed control at 560 g/ha ([2]; 504 h) | pest or weed control at 280 g/ha ([3]; 168 h) | pest or weed control at 560 g/ha ([3]; 168 h) | pest or weed control at 280 g/ha ([3]; 336 h) | pest or weed control at 560 g/ha ([3]; 336 h) | pest or weed control at 280 g/ha ([3]; 504 h) | pest or weed control at 560 g/ha ([3]; 504 h) | pest or weed control at 280 g/ha ([4]; 168 h) | pest or weed control at 560 g/ha ([4]; 168 h) | further results
1 | O=C(COc1ccc(Cl)cc1Cl)n1cnc2ccccc21 [Compound D4, 1-(1H-Benzo[d]imidazol-1-yl)-2-(2,4-dichlorophenoxy)ethanone] | 75% | 83% | 75% | 97% | 75% | 95% | 68% | 65% | 75% | 85% | 83% | 93% | 70% | 70% | 83% | 94% | 88% | 99% | 60% | 68% | pest or weed control at 280 g/ha ([4]; 336 h): 85%; pest or weed control at 560 g/ha ([4]; 336 h): 95%; pest or weed control at 280 g/ha ([4]; 504 h): 85%; pest or weed control at 560 g/ha ([4]; 504 h): 98%; pest or weed control at 280 g/ha ([5]; 168 h): 85%; pest or weed control at 560 g/ha ([5]; 168 h): 93%; pest or weed control at 280 g/ha ([5]; 336 h): 95%; pest or weed control at 560 g/ha ([5]; 336 h): 96%; pest or weed control at 280 g/ha ([5]; 504 h): 98%; pest or weed control at 560 g/ha ([5]; 504 h): 98%; TGA Data (rate of weight loss, volatility) [6]: 0.2 µg/min; pest or weed control at 280 g/ha ([7]; 168 h, 7 DAA): 72%; pest or weed control at 560 g/ha ([7]; 168 h, 7 DAA): 76%; pest or weed control at 280 g/ha ([7]; 336 h, 14 DAA): 83%; pest or weed control at 560 g/ha ([7]; 336 h, 14 DAA): 93%; pest or weed control at 280 g/ha ([7]; 504 h, 21 DAA): 86%; pest or weed control at 560 g/ha ([7]; 504 h, 21 DAA): 97%
2 | O=C(COc1ccc(Cl)cc1Cl)Nc1ccc(Cl)cc1 [Compound D6, N-(4-Chlorophenyl)-2-(2,4-dichlorophenoxy)acetamide] | 68% | 63% | 84% | 70% | 80% | 65% | 60% | 73% | 65% | 75% | 68% | 68% | 65% | 60% | 83% | 78% | 83% | 75% | 58% | 58% | pest or weed control at 280 g/ha ([4]; 336 h): 78%; pest or weed control at 560 g/ha ([4]; 336 h): 68%; pest or weed control at 280 g/ha ([4]; 504 h): 88%; pest or weed control at 560 g/ha ([4]; 504 h): 63%; pest or weed control at 280 g/ha ([5]; 168 h): 50%; pest or weed control at 560 g/ha ([5]; 168 h): 60%; pest or weed control at 280 g/ha ([5]; 336 h): 33%; pest or weed control at 560 g/ha ([5]; 336 h): 58%; pest or weed control at 280 g/ha ([5]; 504 h): 35%; pest or weed control at 560 g/ha ([5]; 504 h): 53%; TGA Data (rate of weight loss, volatility) [6]: 0.02 µg/min; pest or weed control at 280 g/ha ([7]; 168 h, 7 DAA): 60%; pest or weed control at 560 g/ha ([7]; 168 h, 7 DAA): 63%; pest or weed control at 280 g/ha ([7]; 336 h, 14 DAA): 68%; pest or weed control at 560 g/ha ([7]; 336 h, 14 DAA): 70%; pest or weed control at 280 g/ha ([7]; 504 h, 21 DAA): 71%; pest or weed control at 560 g/ha ([7]; 504 h, 21 DAA): 65%
